Like-named read-outs stand apart in the source and are kept apart here.

This note sets out measurements from US10233177B2, “TRPV1 vanilloid receptor antagonists with a bicyclic portion” (Serentrix LLC, priority 2010, dated 2019).

For data set [1], the system named is CCI-induced mechanical hyperalgesia. The data set can be described thus: CCI-induced mechanical hyperalgesia (Randall-Selitto paw pressure). The format is in vivo. The conditions noted are these: rat CCI, 30 μmol/kg oral. As for the experimental part: CCI-Induced Mechanical Hyperalgesia
Male SD rats (Charles River, Italy) weighing 250 g were anaesthetized with sodium pentobarbital (60 mg/kg, intraperitoneal (i.p.), 0.1 ml/10 g) and, under a dissecting microscope, the right common sciatic nerve was exposed at the level of the mid thigh and, proximal to the trifurcation of the nerve; four ligatures (4/0 chromic silk, Ethicon) were loosely tied around it, at about 0.5 mm spacing, until they elicited a brief twitch in the respective hind, taking care to preserve epineural circulation. Sham-operated animals (sciatic exposure without ligation) were used as controls. 14 days after the surgery, mechanical hyperalgesia was assessed using an analgesimeter (Ugo Basile, Italy, Randall-Selitto analgesic apparatus). This device generated a mechanical force on the affected paw and the nociceptive threshold was defined as the force (in g) at which the rat withdraws the paw (with a cut-off of 450 g). Two baseline measurement values were obtained 75 and 45 min before the actual test. After the second baseline measurement, animals were randomly allocated to the different treatment groups. Paw pressure test was performed 0, 75, 120, 165, 210 and 300 min after the oral administration of the compounds. All tested compounds were orally administrated (30 μmol/kg/10 ml) to rats by gavage.

The test system of data set [2] is CFA-induced thermal hyperalgesia. As to the kind of experiment: CFA-induced thermal hyperalgesia in rats (Hargreaves' test). It counts as in vivo. Particulars: rat, 30 μmol/kg oral; read-out: reversal of CFA-induced thermal hyperalgesia (maximal reversal activity / % of reversion). The source says: CFA-Induced Thermal Hyperalgesia in Rats
This method was used for the determination of acute nociceptive thermal threshold and combines a chemical stimulus and heat for measuring pain sensitivity. Male SD rats (Charles River, Italy) weighing 100 to 250 gr. were used. Anti-hyperalgesic effects were investigated by using the Hargreaves' test. Complete Freund's Adjuvant (CFA; Sigma, USA) was used to induce thermal hyperalgesia. CFA contains killed Mycobacterium tuberculosis and is designed to provide continuous release of antigens necessary for stimulating a strong, persistent immune response. This effect causes the reduction of the hind paw withdrawal response latency induced by heat during the Hargreaves' test. Thermal stimulation was performed 30, 60, 120 and 180 (240 min only if needed) minutes after the oral administration of the antagonists. During the CFA-induced thermal hyperalgesia experiments two different solubilization protocols were used: when items presented an amino group, a pH=2 aqueous solution of HCl and 2.5% Tween80 was used; otherwise molecules were suspended in 0.5% Methocel and 2.5% Tween80. Compounds were orally administrated (30 μmol/kg/10 ml) to rats 24 hours after the CFA treatment. CFA was injected into the plantar surface of a rat's hind paw at a fixed dose of 50 μl by the use of a micro syringe.

Data set [3] can be described thus: Rectal temperature measurements in rats. Particulars: rat, 10 μmol/Kg intraperitoneal. It counts as in vivo. The protocol: Rectal Temperature Measurements in Rats
Body temperature was measured by a digital thermometer inserted at a depth of approximately 3 cm into the rectum of each animal (male SD rats, Charles River, Italy, 100 to 250 g). A pre-dose value of body temperature was measured prior to the administration of the test substance or vehicles. Animals were distributed among groups by the manual method to achieve the almost same mean values of body temperature of the groups based on the pre-dose value. All compounds were dissolved in 6% DMSO/6% Tween80 and then intraperitoneally (10 μmol/Kg/5 ml) administrated to rats.

Data set [4] addresses TRPV1 (Rattus norvegicus (Rat), UniProt O35433). The data set can be described thus: Ca2+ fluorescence measurements in cultured rat dorsal root ganglia neurons (capsaicin-induced calcium uptake). The format is cell-based. The conditions noted are these: rat DRG neurons; for inhibition at 0.3 µM: DRG neuron.
Data set [5] concerns CFA-induced tactile allodynia. The data set can be described thus: CFA-induced tactile allodynia in rats (von Frey filaments). It counts as in vivo. Particulars: rat, 30 μmol/kg oral. As for the experimental part:
CFA-Induced Tactile Allodynia in Rats
Male SD rats (Charles River, Italy) weighing 100 to 250 g were put into a clean plastic cage on an elevated glass plate for 30 min before the test. This lets the animals accommodate to their new environment before testing. Complete Freund's adjuvant (CFA, 50 μl) was injected into the plantar surface of the right hind paw. Tactile stimulation was performed with von Frey filaments (from 0.07 to 26 g). All antagonists were orally administered 22 hours after to the CFA administration. Von Frey filaments were applied 30, 60, 120, 180, 240, 300 and 360 min after compound administrations. Median 50% (EG50) threshold of von Frey filaments was calculated by using the up-down method as previously described. All tested compounds were suspended in 0.5% Methocel and 2.5% Tween80 and orally administrated (30 μmol/kg/10 ml) to rats by gavage 24 hours after the CFA treatment. CFA was injected into the plantar surface of a rat's hind paw at a fixed dose of 50 μl by the use of a micro syringe.

The mark [6] stands for this setting: 300 nM, read-out: abolition of capsaicin response at 300 nM.
[7] abbreviates: Table 1, formula IA-C, 300 nM against calcium uptake induced by 30 nM capsaicin, read-out: % inhibition at 300 nM.
The mark [8] stands for this setting: capsaicin-induced calcium uptake, read-out: inhibition of the calcium uptake.
[9] abbreviates: Table 1, against capsaicin-evoked [Ca2+]i mobilization, read-out: IC50.
The mark [10] stands for this setting: read-out: IC50 against capsaicin-evoked [Ca2+]i mobilization.

TRPV1, sequence (O35433 whole entry): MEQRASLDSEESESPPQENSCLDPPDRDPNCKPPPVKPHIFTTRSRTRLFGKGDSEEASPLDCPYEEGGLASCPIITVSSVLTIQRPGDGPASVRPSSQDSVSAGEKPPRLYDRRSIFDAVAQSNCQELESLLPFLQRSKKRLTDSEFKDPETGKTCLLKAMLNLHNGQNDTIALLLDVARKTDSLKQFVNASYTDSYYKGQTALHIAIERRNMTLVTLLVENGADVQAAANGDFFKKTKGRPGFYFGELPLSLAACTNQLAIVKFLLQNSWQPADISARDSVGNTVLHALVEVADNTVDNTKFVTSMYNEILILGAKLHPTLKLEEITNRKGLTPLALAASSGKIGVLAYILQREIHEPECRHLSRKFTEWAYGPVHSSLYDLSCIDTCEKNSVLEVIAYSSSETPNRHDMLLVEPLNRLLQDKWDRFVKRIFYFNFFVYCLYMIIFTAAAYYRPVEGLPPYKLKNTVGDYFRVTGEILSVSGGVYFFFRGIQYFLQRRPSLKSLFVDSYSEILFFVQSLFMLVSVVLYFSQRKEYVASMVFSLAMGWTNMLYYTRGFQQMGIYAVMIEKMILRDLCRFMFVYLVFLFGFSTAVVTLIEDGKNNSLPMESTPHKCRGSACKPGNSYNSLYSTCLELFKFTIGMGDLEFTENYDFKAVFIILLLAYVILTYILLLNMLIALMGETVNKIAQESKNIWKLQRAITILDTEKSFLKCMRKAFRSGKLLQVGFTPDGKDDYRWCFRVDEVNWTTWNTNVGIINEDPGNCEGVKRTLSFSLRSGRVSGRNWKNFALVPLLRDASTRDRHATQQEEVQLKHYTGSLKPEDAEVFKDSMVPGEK

With `O=C(NCc1ccc(C(F)(F)F)cc1N1CCCCC1)Nc1cccc2oc(=O)[nH]c12` [Example 31, 1-(4-(trifluoromethyl)-2-(piperidin-1-yl)benzyl)-3-(2,3-dihydro-2-oxobenzo[d]oxazol-4-yl)urea], the “anti-hyperalgesic activity (in words)” value in data set [1] was “relevant and long lasting anti-hyperalgesic activity”. Also, the “reversal of hyperalgesia within the first 2 hours” value in data set [1] is “at least 80%”. In data set [2], the inhibition in vivo at 30 µmol/kg stood at 47%. In data set [3], the “effect on rectal body temperature” value was −1.5 °C. For the same molecule, the inhibition at 0.3 µM was approximately 100% in data set [4] (setting [6]), 100% in data set [4] (setting [7]) and more than 80% in data set [4] (setting [8]). Besides, the IC50 in data set [4] (setting [9]) and in data set [4] (setting [10]) was 1.9 nM in each case.
Turning to `CN(C)c1cc(C(F)(F)F)ccc1CNC(=O)Nc1cccc2c1OCC(=O)N2` [Example 46, 1-(2-(dimethylamino)-4-(trifluoromethyl)benzyl)-3-(3,4-dihydro-3-oxo-2H-benzo[b][1,4]oxazin-8-yl)urea], the “anti-hyperalgesic activity (in words)” value in data set [1] is “relevant and long lasting anti-hyperalgesic activity”. In data set [1], the “reversal of hyperalgesia within the first 2 hours” value was “at least 80%”. The inhibition in vivo at 30 µmol/kg in data set [2] was found to be 50%. Moreover, the “effect on rectal body temperature” value in data set [3] is “+0.8 °C”. Further, the inhibition at 0.3 µM is approximately 100% in data set [4] (setting [6]), 94% in data set [4] (setting [7]) and more than 80% in data set [4] (setting [8]). Further, the IC50 in data set [4] (setting [9]) and in data set [4] (setting [10]) was 3 nM each time.
In the case of `O=C1COc2c(cccc2NC(=O)NCc2ccc(Cl)cc2N2CCCC2)N1` [Example 51, 1-(4-chloro-2-(pyrrolidin-1-yl)benzyl)-3-(3,4-dihydro-3-oxo-2H-benzo[b][1,4]oxazin-8-yl)urea], the inhibition in vivo at 30 µmol/kg in data set [2] was determined as 30%. The “duration of effect on CFA-induced tactile allodynia, post-treatment” value (“duration of effect” below) in data set [5] was “shorter duration”. Also, the “reversal of CFA-induced tactile allodynia” value in data set [5] came out at 61%. For the same molecule, the values for the inhibition at 0.3 µM in data set [4] (setting [6]), in data set [4] (setting [7]) and in data set [4] (setting [8]) were approximately 100%, 100% and more than 80%, respectively. The figures for the IC50 in data set [4] (setting [9]) and in data set [4] (setting [10]) were 0.1 nM and 1.8 nM, respectively.
`O=C(NCc1ccc(C(F)(F)F)cc1N1CCCC1)Nc1cccc2[nH]c(=O)[nH]c12` [Example 5, 1-(4-(trifluoromethyl)-2-(pyrrolidin-1-yl)benzyl)-3-(2,3-dihydro-2-oxo-1H-benzo[d]imidazol-4-yl)urea]: the “anti-hyperalgesic activity (in words)” value in data set [1] was “relevant and long lasting anti-hyperalgesic activity”. In addition, in data set [1], the “reversal of hyperalgesia within the first 2 hours” value is reported as “at least 80%”. For the same molecule, the inhibition in vivo at 30 µmol/kg in data set [2] was determined as 53%. Also, the “duration of effect” value in data set [5] is recorded as “up to 240 min”. For the same molecule, the “reversal of CFA-induced tactile allodynia” value in data set [5] is 60%. Also, the figures for the inhibition at 0.3 µM in data set [4] (setting [6]), in data set [4] (setting [7]) and in data set [4] (setting [8]) were approximately 100%, 100% and more than 80%, respectively. In addition, the concentration for half-maximal inhibition (IC50) in data set [4] (setting [9]) and in data set [4] (setting [10]) was 1 nM in each case.
Turning to `O=C(NCc1ccc(Cl)cc1N1CCCC1)Nc1cccc2[nH]c(=O)[nH]c12` [Example 12, 1-(4-chloro-2-(pyrrolidin-1-yl)benzyl)-3-(2,3-dihydro-2-oxo-1H-benzo[d]imidazol-4-yl)urea], the inhibition in vivo at 30 µmol/kg in data set [2] was 65%. Also, the “duration of effect” value in data set [5] is recorded as “up to 300 min”. In addition, in data set [5], the “reversal of CFA-induced tactile allodynia” value came to 62%. In addition, the inhibition at 0.3 µM in data set [4] (setting [7]) was 88%; in data set [4] (setting [8]), more than 80%. The IC50 in data set [4] (setting [9]) and in data set [4] (setting [10]) was 6 nM each time.
`O=C1COc2c(cccc2NC(=O)NCc2ccc(Cl)cc2)N1` [Example 49, 1-(4-chlorobenzyl)-3-(3,4-dihydro-3-oxo-2H-benzo[b][1,4]oxazin-8-yl)urea]: in data set [1], the “anti-hyperalgesic activity (in words)” value was “relevant and long lasting anti-hyperalgesic activity”; the “reversal of hyperalgesia within the first 2 hours” value is on record as “at least 80%”. Moreover, the inhibition in vivo at 30 µmol/kg in data set [2] was 52%. Further, in data set [5], the “reversal of CFA-induced tactile allodynia” value is listed as 72%. Besides, in data set [4] (setting [7]), the inhibition at 0.3 µM worked out at 68%.
